Measured values taken from PMC7395176, “Retromer stabilization results in neuroprotection in a model of Amyotrophic Lateral Sclerosis” (Nature Communications, 2020).

Columns and labels:
VPS35 [1] = molecular target: T1, VPS35 (Mus musculus, UniProt Q9EQH3+Q9QZ88); conditions: Neuro2a cells, 10 µM, 48 h, WB
Method: Protein extracts were collected, separated by SDS-PAGE and immunoblotted for VPS35 and the housekeeping gene β-Actin.
Neuro2a cells (ATCC® CCL-131™) were seeded in Dulbecco’s modified Eagle’s media (DMEM, Gibco) supplemented with FBS 10% (Gibco), L-glutamine (Gibco) 2 mM and penicillin/streptomycin 1% (Gibco). Depending on the experimental setting, we used 6-well, 12-well or 96-well dishes. Neuro2a were grow at 37 °C in a humidified 5% CO2 atmosphere. All experiments were carried out at least in triplicate. Compounds and transfections were done on cells showing 60–70% of confluence. Compounds were usually kept on cells for 48 h; Bortezomib (BTZ) was used at 10 nM for 6 h to inhibit proteasome.
Protein lysates from cells cultures were collected from plates receiving PBS 1× washing and subsequently the lysis buffer followed by sonication. Protein concentrations were measured by BCA protein assay kit (Thermofisher) according to the manufacturer’s recommendations. Ten µg of protein extract was loaded on 10% Mini-PROTEAN TGX Stain-Free precast gels for PAGE (Bio-Rad). Gel electrophoresis was performed at 100 V for 2 h. Gels were transferred on Immobilon®-P PVDF membrane according to the manufacturer’s instructions (Millipore). Blots were blocked in 5% BSA in Tris buffered saline plus 0.1% Tween-20 (TBS-T) for 1 h before receiving primary antibodies: goat α-VPS35 1:800 (ab10099, Abcam); rabbit α-VPS26 1:1000 (ab23892 Abcam), rabbit α-VPS26b 1:1000 (15915-1-AP, ProteinTech); rabbit α-VPS29 1:1000 (ab236796 Abcam); mouse α-βActin 1:25000 (Sigma–Aldrich); mouse α-Golgin97 1:1000 (Invitrogen); mouse α-Ubiquitin 1:500 (Merk); rabbit α-CD14 1:1000 (Bioss Inc); mouse α-Tubulin 1:5000 (Immunological Sciences MAB-80143) overnight at 4 °C on shaker. Following several washes with TBS-T, blots were incubated in appropriate HRP-labeled secondary antibodies (Bio-Rad) for 1 h at room temperature. Visualization of protein bands was obtained using ClarityMax-ECL (Bio-Rad) according to the manufacturer’s instructions and images were acquired on ChemiDoc (Bio-Rad). Quantifications were done using the Image Lab 6.0.1 software (Bio-Rad).

[2] = tested on: Vps35, Vps26, and Vps29 mRNAs; parameters: method as in PMID 24747528; conditions: cited from earlier work
VPS29-VPS35 heterodimer = VPS29-VPS35 heterodimer (Homo sapiens, UniProt Q96QK1+Q9UBQ0); test: STD-NMR and WaterLogsy-NMR ligand-based binding experiments; conditions: STD- and WL-NMR competition experiments could not be performed
Method: We used a ligand-based NMR approach to localize the binding between compound 2a and the VPS29-VPS35 heterodimer. These techniques provide binding information without requiring any isotopic labeling of the proteins. Particularly, Saturation Transfer Difference NMR (STD-NMR)[32] and WaterLogsy-NMR (WL-NMR)[33] experiments were acquired in buffer solutions containing a large excess of compound 2a (500μM) with respect to VPS29-VPS35 (10 μM). Both STD-NMR and WL-NMR focus on the NMR signals of the ligand and utilize the magnetization transfer by the Nuclear Overhauser Effect (NOE) between protein and ligand. STD-NMR experiments are carried out by subtraction of a 1D ^1H spectrum where the protein protons are selectively irradiated (on-resonance spectrum) from a spectrum in which the protein is not saturated (off-resonance spectrum).
WL-NMR entails magnetization transfer to the ligand from either bulk water via a macromolecule, and/or the exchangeable protons and the water molecules present in the binding site. Positive peaks for proton resonances of the ligand in the WL-NMR spectrum are observed for binders in presence of the protein. […] As negative control, STD-NMR and WL-NMR experiments were performed for compound 2a in absence of the heterodimer. The absence of proton signals in the aromatic zone and the presence of negative signals in STD-NMR (Fig. 2k) and WL-NMR (Fig. 2l) spectra, respectively, confirms the binding between compound 2a and the VPS29-VPS35 heterodimer. Unfortunately, STD- and WL-NMR competition experiments between 2a and R55/1 could not be performed since the latter compound was not stable in our experimental conditions.
NMR spectra were acquired at 298K on a Bruker Avance NEO 700 MHz spectrometer equipped with a Z-gradient cryoprobe. The spectra were processed with the Bruker TOPSPIN 4.0.5 software packages. […] 1D ^1H spectra were recorded using a 1 s presaturation pulse with a B1 power of 200 Hz. […]

[3] = tested on: VPS35-VPS29 interaction / retromer; parameters: method as in PMID 24747528; conditions: cited from earlier work
APP processing = tested on: APP processing; parameters: method as in PMID 24747528; conditions: neurons carrying pathogenic APP mutations; cited from earlier work
VPS35 [4] = molecular target: T1, VPS35; test: Western blot for VPS35 in spinal cord extracts of treated C57BL6J mice; type: in vivo; parameters: from tissue; host or cells: mouse (lumbar) spinal cord, motor neurons; conditions: 10 mg/Kg intraperitoneally daily, 1 week
Method: Compounds 2a, 4a, and standard R55/1 (10 mg/Kg) were intraperitoneally injected in C57BL6J mice daily. After 1 week, mice were sacrificed, saline perfused to avoid CNS contamination by compounds in blood circulation, and SC protein extracts were assayed by WB. […] Therefore, phenyl-1,3-bis-guanylhydrazone 2a was selected as an early lead.

## NC(N)=N/N=C/c1ccc(/C=N/N=C(N)N)s1 [compound 3a]
VPS35 [1]
  VPS35 levels: increased VPS35 levels

## N=C(N)SCc1ccc(CSC(=N)N)s1 [R55/1]
[2]
  transcription levels of CRC genes: did not influence
VPS29-VPS35 heterodimer
  stability in NMR experimental conditions: not stable
VPS35 [1]
  VPS35 levels: increased
[3]
  VPS35-VPS29 interaction: stabilizes the VPS35-VPS29 interaction
  VPS35 and VPS26 levels in cultured cells: increases VPS35 and VPS26 levels
  increase of VPS35 levels in cells: ~60%
APP processing
  accumulation of amyloid-β peptides and APP processing: reduced the accumulation of amyloid-β (Aβ) peptides as well as APP processing

## N=C(N)SCc1cccc(CSC(=N)N)c1 [compound 4a]
VPS35 [4]
  VPS35 levels in SC extracts: slightly, but not significantly, increased
VPS35 [1]
  VPS35 levels: increased VPS35 levels
